Data published in PubChem BioAssay AID651849 (The Scripps Research Institute Molecular Screening Center, 2012).

Target: Photoreceptor-specific nuclear receptor (Homo sapiens) (UniProt Q9Y5X4)
Test: agonist-induced NR2E3-NCOR dissociation – cell-based, luminescence, CHO-S two-hybrid, late stage, dose response (AID 651849)
Details: CHO-S Gal4-NCOR/VP16-NR2E3 two-hybrid, luciferase

Chain of Photoreceptor-specific nuclear receptor (Homo sapiens) (Q9Y5X4 whole entry, looked up): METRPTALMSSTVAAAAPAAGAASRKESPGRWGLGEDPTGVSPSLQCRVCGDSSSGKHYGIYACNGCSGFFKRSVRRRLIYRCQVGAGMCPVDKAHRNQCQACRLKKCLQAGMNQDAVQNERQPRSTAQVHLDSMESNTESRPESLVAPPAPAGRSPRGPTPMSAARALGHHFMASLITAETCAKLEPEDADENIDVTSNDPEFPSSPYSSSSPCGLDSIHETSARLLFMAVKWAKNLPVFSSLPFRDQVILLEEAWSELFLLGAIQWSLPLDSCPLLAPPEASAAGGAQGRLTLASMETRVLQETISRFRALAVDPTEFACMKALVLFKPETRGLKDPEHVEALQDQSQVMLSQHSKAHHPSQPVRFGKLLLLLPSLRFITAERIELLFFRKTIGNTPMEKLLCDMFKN

Structure (SMILES)	IC50
COc1ccc(S(=O)(=O)N2CCCCC2)cc1NC(=S)Nc1ccccc1	2630 nM
O=c1cc(N2CCN(c3cccc(Cl)c3)CC2)[nH]c(=O)n1C1CCCCC1	72.7 nM
COc1ccc(S(=O)(=O)N2CCCCC2)cc1NC(=S)Nc1cccc(Cl)c1C	1500 nM
COc1ccc2c(CC(=O)Nc3ncc(C)s3)coc2c1	1920 nM
Cc1ccc(-c2nc(NC(=O)CSc3nnnn3-c3ccccc3)ns2)cc1	404 nM
O=C(Nc1cccc(NC(=O)c2c(F)cccc2F)n1)c1c(F)cccc1F	7990 nM
COc1cccc(NC(=O)CSc2nc3ncc(Br)cc3[nH]2)c1	3570 nM
COc1ccc(OC)c(NC(=O)CSc2nnnn2-c2ccc3c(c2)OCO3)c1	301 nM
Cc1ccc(CN2CC(C(=O)Nc3ncc(C)s3)CC2=O)cc1 (stereo unspecified)	516 nM
NC(=O)c1nn(-c2ccccc2)nc1NC(=O)CSc1nnnn1-c1ccc(Cl)cc1	1570 nM
COc1cccc(N2CCN(c3nc(-c4ccccc4C)cc(=O)[nH]3)CC2)c1	428 nM
Cc1cnc(NC(=O)Cc2ccc(Br)cc2)s1	2250 nM
COc1ccc(NC2c3ccccc3C(=O)N2Cc2ccccc2Cl)cc1OC (stereo unspecified)	4840 nM
O=c1c(Cl)c(N2CCN(c3ccc(F)cc3)CC2)cnn1C12CC3CC(CC(C3)C1)C2	3340 nM
Cc1cnc(NC(=O)C2CC(=O)N(c3ccc4c(c3)OCCO4)C2)s1 (stereo unspecified)	7060 nM
Cc1ccnc(NC(=O)CSc2cc(=O)n(C)c3ccccc23)c1	1430 nM
O=C(CSc1nnnn1-c1ccc2c(c1)OCCO2)Nc1nc2c(s1)CCCC2	682 nM
O=C(O)CC1(CC(=O)Nc2cc(C(F)(F)F)cc(C(F)(F)F)c2)CCCCC1	4020 nM
Cc1onc(-c2ccccc2Cl)c1C(=O)Nc1nc2c(s1)CCCC2	597 nM
Cc1cccc(C(=O)N[C@H](C(=O)Nc2ncc(C)s2)C(C)C)c1	324 nM
Cc1cccc(OCCCC(=O)Nc2nc3ccccc3[nH]2)c1	5300 nM
COc1cc2nc(CN3CC=C(c4ccccc4)CC3)[nH]c(=O)c2cc1OC	393 nM
Cc1ccc(NC(=O)CSc2nnnn2-c2ccc3c(c2)OCO3)cc1C	566 nM
Cc1cc(C)cc(NC(=O)CCc2nc3sc4c(c3c(=O)[nH]2)CCCC4)c1	249 nM
Cc1cnc(NC(=O)CCCc2nc3ccccc3s2)s1	945 nM
O=C(CSc1nnnn1-c1ccc(O)cc1)Nc1ccc(N2CCOCC2)c(Cl)c1	1250 nM
